Numbers after ± are expanded uncertainties.
What was measured:
[1] = refractive index (Na D-line) (dimensionless); xn = mol fraction of the nth substance listed; conditions: 298.15 K, 101 kPa, Liquid, Standard Abbe refractometry
[2] = xn = mol fraction of the nth substance listed; conditions: 298.15 K, 101 kPa, Liquid; for viscosity: Capillary tube (Ostwald / Ubbelohde) method
[3] = refractive index (Na D-line) (dimensionless); conditions: 298.15 K; 101.33 kPa; Liquid; Standard Abbe refractometry
[4] = 298.15 K; 101 kPa; Liquid

CCCCCl [1-chlorobutane] + CCCCOC(C)=O
Conditions | mass density, [2] [kg/m3] | refractive index, [1] | viscosity, [2] [mPa·s]
x2 = 0 | 880.87 ± 0.35 | 1.3996 ± 0.0004 | –
x2 = 0.0503 | 880.41 ± 0.35 | 1.3989 ± 0.0004 | 0.42 ± 0.005
x2 = 0.1111 | 879.89 ± 0.35 | 1.3981 ± 0.0004 | 0.432 ± 0.005
x2 = 0.1527 | 879.56 ± 0.35 | 1.3976 ± 0.0004 | 0.441 ± 0.005
x2 = 0.2003 | 879.19 ± 0.35 | 1.3971 ± 0.0004 | 0.451 ± 0.005
x2 = 0.2996 | 878.52 ± 0.35 | 1.3961 ± 0.0004 | 0.473 ± 0.005
x2 = 0.3493 | 878.23 ± 0.35 | 1.3956 ± 0.0004 | 0.484 ± 0.005
x2 = 0.3978 | 877.97 ± 0.35 | 1.3952 ± 0.0004 | 0.495 ± 0.005
x2 = 0.4508 | 877.72 ± 0.35 | 1.3947 ± 0.0004 | 0.507 ± 0.005
x2 = 0.4997 | 877.51 ± 0.35 | 1.3943 ± 0.0004 | 0.519 ± 0.005
x2 = 0.55 | 877.31 ± 0.35 | 1.3939 ± 0.0004 | 0.531 ± 0.005
x2 = 0.5985 | 877.15 ± 0.35 | 1.3936 ± 0.0004 | 0.543 ± 0.005
x2 = 0.6501 | 876.99 ± 0.35 | 1.3933 ± 0.0004 | 0.555 ± 0.005
x2 = 0.7002 | 876.84 ± 0.35 | 1.393 ± 0.0004 | 0.568 ± 0.006
x2 = 0.7493 | 876.72 ± 0.36 | 1.3928 ± 0.0004 | 0.58 ± 0.006
x2 = 0.8042 | 876.6 ± 0.36 | 1.3925 ± 0.0004 | 0.594 ± 0.006
x2 = 0.85 | 876.51 ± 0.36 | 1.3923 ± 0.0004 | 0.606 ± 0.006
x2 = 0.8991 | 876.43 ± 0.36 | 1.3921 ± 0.0004 | 0.619 ± 0.006

CCCCCCl [1-chloropentane] + CCCCOC(C)=O
Conditions | mass density, [2] [kg/m3] | refractive index, [1] | viscosity, [2] [mPa·s]
x2 = 0 | 876.93 ± 0.47 | 1.4097 ± 0.0004 | –
x2 = 0.05 | 876.71 ± 0.46 | 1.4081 ± 0.0004 | 0.55 ± 0.006
x2 = 0.1 | 876.44 ± 0.45 | 1.4065 ± 0.0004 | 0.552 ± 0.006
x2 = 0.15 | 876.14 ± 0.45 | 1.405 ± 0.0004 | 0.554 ± 0.006
x2 = 0.2 | 875.89 ± 0.44 | 1.4036 ± 0.0004 | 0.557 ± 0.006
x2 = 0.3 | 875.46 ± 0.43 | 1.401 ± 0.0004 | 0.563 ± 0.006
x2 = 0.35 | 875.29 ± 0.42 | 1.3998 ± 0.0004 | 0.567 ± 0.006
x2 = 0.4 | 875.2 ± 0.42 | 1.3987 ± 0.0004 | 0.571 ± 0.006
x2 = 0.5 | 875.11 ± 0.4 | 1.3967 ± 0.0004 | 0.58 ± 0.006
x2 = 0.6 | 875.15 ± 0.39 | 1.395 ± 0.0004 | 0.591 ± 0.006
x2 = 0.7019 | 875.34 ± 0.38 | 1.3936 ± 0.0004 | 0.603 ± 0.006
x2 = 0.75 | 875.48 ± 0.38 | 1.3931 ± 0.0004 | 0.61 ± 0.006
x2 = 0.7998 | 875.62 ± 0.37 | 1.3926 ± 0.0004 | 0.616 ± 0.006
x2 = 0.9 | 875.94 ± 0.36 | 1.3921 ± 0.0004 | 0.631 ± 0.006

CCCCCCCCCl [1-chlorooctane]
Conditions | mass density [kg/m3] | refractive index
[3] | – | 1.4282 ± 0.0004
[4] | 868.71 ± 0.37 | –

CCCCOC(C)=O [butyl ethanoate] + CCCCCl
x1 = 1
Conditions | mass density [kg/m3] | refractive index
[1] | – | 1.3918 ± 0.0004
[2] | 876.28 ± 0.36 | –

CCCCCCCCl [1-chloroheptane] + CCCCOC(C)=O
Conditions | mass density, [2] [kg/m3] | refractive index, [1] | viscosity, [2] [mPa·s]
x2 = 0 | 872.79 ± 0.36 | 1.4236 ± 0.0004 | –
x2 = 0.0505 | 872.6 ± 0.36 | 1.4219 ± 0.0004 | 0.828 ± 0.007
x2 = 0.1006 | 872.52 ± 0.36 | 1.4203 ± 0.0004 | 0.815 ± 0.007
x2 = 0.1503 | 872.45 ± 0.36 | 1.4189 ± 0.0004 | 0.803 ± 0.006
x2 = 0.2014 | 872.41 ± 0.36 | 1.4175 ± 0.0004 | 0.792 ± 0.006
x2 = 0.3003 | 872.39 ± 0.36 | 1.4147 ± 0.0004 | 0.77 ± 0.006
x2 = 0.3505 | 872.42 ± 0.36 | 1.4133 ± 0.0004 | 0.759 ± 0.006
x2 = 0.4007 | 872.48 ± 0.36 | 1.4118 ± 0.0004 | 0.749 ± 0.006
x2 = 0.4503 | 872.56 ± 0.36 | 1.4103 ± 0.0004 | 0.739 ± 0.006
x2 = 0.5006 | 872.71 ± 0.36 | 1.4087 ± 0.0004 | 0.729 ± 0.006
x2 = 0.6001 | 873.07 ± 0.36 | 1.4054 ± 0.0004 | 0.71 ± 0.006
x2 = 0.65 | 873.32 ± 0.36 | 1.4037 ± 0.0004 | 0.7 ± 0.006
x2 = 0.6996 | 873.64 ± 0.36 | 1.402 ± 0.0004 | 0.691 ± 0.006
x2 = 0.7499 | 873.97 ± 0.36 | 1.4003 ± 0.0004 | 0.682 ± 0.006
x2 = 0.8001 | 874.32 ± 0.36 | 1.3986 ± 0.0004 | 0.674 ± 0.006
x2 = 0.9 | 875.2 ± 0.36 | 1.3952 ± 0.0004 | 0.659 ± 0.006

CCCCOC(C)=O [butyl ethanoate] + CCCCCCl
x1 = 1
Conditions | mass density [kg/m3] | refractive index
[1] | – | 1.3918 ± 0.0004
[2] | 876.28 ± 0.36 | –

CCCCCCCl [1-chlorohexane] + CCCCOC(C)=O
Conditions | mass density, [2] [kg/m3] | refractive index, [1] | viscosity, [2] [mPa·s]
x2 = 0 | 873.39 ± 0.47 | 1.4171 ± 0.0004 | –
x2 = 0.0568 | 873.06 ± 0.47 | 1.4159 ± 0.0004 | 0.662 ± 0.007
x2 = 0.1099 | 872.97 ± 0.46 | 1.4148 ± 0.0004 | 0.659 ± 0.006
x2 = 0.1638 | 872.88 ± 0.45 | 1.4137 ± 0.0004 | 0.657 ± 0.006
x2 = 0.2188 | 872.81 ± 0.44 | 1.4125 ± 0.0004 | 0.655 ± 0.006
x2 = 0.3237 | 872.8 ± 0.43 | 1.4102 ± 0.0004 | 0.652 ± 0.006
x2 = 0.3745 | 872.83 ± 0.42 | 1.4091 ± 0.0004 | 0.651 ± 0.006
x2 = 0.4271 | 872.87 ± 0.42 | 1.4078 ± 0.0004 | 0.65 ± 0.006
x2 = 0.4773 | 872.98 ± 0.41 | 1.4066 ± 0.0004 | 0.649 ± 0.006
x2 = 0.5286 | 873.11 ± 0.4 | 1.4053 ± 0.0004 | 0.648 ± 0.006
x2 = 0.6265 | 873.53 ± 0.39 | 1.4028 ± 0.0004 | 0.646 ± 0.006
x2 = 0.6753 | 873.78 ± 0.39 | 1.4015 ± 0.0004 | 0.645 ± 0.006
x2 = 0.7232 | 874.04 ± 0.38 | 1.4001 ± 0.0004 | 0.645 ± 0.006
x2 = 0.8171 | 874.66 ± 0.37 | 1.3973 ± 0.0004 | 0.645 ± 0.006
x2 = 0.8631 | 875.01 ± 0.37 | 1.3959 ± 0.0004 | 0.645 ± 0.006

CCCCOC(C)=O [butyl ethanoate] + CCCCCCCCCl
x1 = 1
Conditions | mass density [kg/m3] | refractive index
[1] | – | 1.3918 ± 0.0004
[2] | 876.28 ± 0.36 | –

CCCCCCl [1-chloropentane]
Conditions | mass density [kg/m3] | refractive index
[3] | – | 1.4097 ± 0.0004
[4] | 876.93 ± 0.47 | –

CCCCOC(C)=O [butyl ethanoate] + CCCCCCCl
x1 = 1
Conditions | mass density [kg/m3] | refractive index
[1] | – | 1.3918 ± 0.0004
[2] | 876.28 ± 0.36 | –

CCCCOC(C)=O [butyl ethanoate]
Conditions | mass density [kg/m3] | refractive index
[3] | – | 1.3918 ± 0.0004
[4] | 876.28 ± 0.36 | –

CCCCCl [1-chlorobutane]
Conditions | mass density [kg/m3] | refractive index
[3] | – | 1.3996 ± 0.0004
[4] | 880.87 ± 0.35 | –

CCCCCCCl [1-chlorohexane]
Conditions | mass density [kg/m3] | refractive index
[3] | – | 1.4171 ± 0.0004
[4] | 873.39 ± 0.47 | –

CCCCCCCCl [1-chloroheptane]
Conditions | mass density [kg/m3] | refractive index
[3] | – | 1.4236 ± 0.0004
[4] | 872.79 ± 0.36 | –

CCCCCCCCCl [1-chlorooctane] + CCCCOC(C)=O
Conditions | mass density, [2] [kg/m3] | refractive index, [1] | viscosity, [2] [mPa·s]
x2 = 0 | 868.71 ± 0.37 | 1.4282 ± 0.0004 | –
x2 = 0.0507 | 868.69 ± 0.37 | 1.4271 ± 0.0004 | 1.032 ± 0.008
x2 = 0.1002 | 868.7 ± 0.37 | 1.4264 ± 0.0004 | 1.007 ± 0.007
x2 = 0.1498 | 868.74 ± 0.37 | 1.4256 ± 0.0004 | 0.981 ± 0.007
x2 = 0.1999 | 868.73 ± 0.37 | 1.4247 ± 0.0004 | 0.959 ± 0.007
x2 = 0.3001 | 868.77 ± 0.37 | 1.4222 ± 0.0004 | 0.911 ± 0.007
x2 = 0.3496 | 868.82 ± 0.37 | 1.4208 ± 0.0004 | 0.889 ± 0.007
x2 = 0.4001 | 868.99 ± 0.37 | 1.4192 ± 0.0004 | 0.867 ± 0.007
x2 = 0.4503 | 869.17 ± 0.37 | 1.4174 ± 0.0004 | 0.846 ± 0.007
x2 = 0.5 | 869.45 ± 0.37 | 1.4156 ± 0.0004 | 0.825 ± 0.007
x2 = 0.6019 | 870.13 ± 0.36 | 1.4114 ± 0.0004 | 0.784 ± 0.006
x2 = 0.6999 | 871.1 ± 0.36 | 1.4069 ± 0.0004 | 0.745 ± 0.006
x2 = 0.7998 | 872.48 ± 0.36 | 1.4018 ± 0.0004 | 0.708 ± 0.006
x2 = 0.8999 | 874.25 ± 0.36 | 1.3968 ± 0.0004 | 0.674 ± 0.006

CCCCOC(C)=O [butyl ethanoate] + CCCCCCCCl
x1 = 1
Conditions | mass density [kg/m3] | refractive index
[1] | – | 1.3918 ± 0.0004
[2] | 876.28 ± 0.36 | –

Reference: the NIST ThermoML archive (doi:10.1007/s10765-010-0902-x)
